Experimental data: patent US5532267A, “Amidinonaphthyl furancarboxylate derivatives and acid addition salts therof” (Torii & Co., Ltd., priority 1992, dated 1996)
pIC50: −log10 of the molar value. Counter-ions that a name gives are not always drawn. Like-named read-outs stand apart in the source and are kept apart here.

What was measured:
Masugi's nephritis = assay: Effectiveness in treating Masugi's nephritis (experimental glomerulonephritis), protein in urine; type: in vivo, rat
Description: […] […] As the index to effectiveness, the protein concentration in urine was determined. That is, when inflammation develops in the kidney, it causes damage to renal tubules, etc., and a resultant increase in protein concentration in urine.

thrombin = thrombin (Homo sapiens, UniProt P00734); assay: anti-thrombin activity, hydrolysis of TAME (tosylarginine methyl ester); type: biochemical; conditions: hydrolysis of TAME; read-out: Thr: molar concentration inhibiting 50% of enzyme activity (IC50)
Description: (§1) The values in Table 1 represent molar concentrations (IC50) of test compounds which inhibit 50% of the activity of each enzyme to hydrolyze TAME (tosylarginine methyl ester). The anti-trypsin, anti-plasmin, anti-kallikrein and anti-thrombin activities were determined according to the method of Muramatsu et al. (J. Biochem. (1965), volume 58, page 214).

C1r = target: T1, C1r (Homo sapiens, UniProt P00736); assay: anti-complement (anti-C1 esterase) activity, C1r hydrolysis of AAME (acetyl-arginine methyl ester); type: biochemical
T1 sequence (P00736 18-705): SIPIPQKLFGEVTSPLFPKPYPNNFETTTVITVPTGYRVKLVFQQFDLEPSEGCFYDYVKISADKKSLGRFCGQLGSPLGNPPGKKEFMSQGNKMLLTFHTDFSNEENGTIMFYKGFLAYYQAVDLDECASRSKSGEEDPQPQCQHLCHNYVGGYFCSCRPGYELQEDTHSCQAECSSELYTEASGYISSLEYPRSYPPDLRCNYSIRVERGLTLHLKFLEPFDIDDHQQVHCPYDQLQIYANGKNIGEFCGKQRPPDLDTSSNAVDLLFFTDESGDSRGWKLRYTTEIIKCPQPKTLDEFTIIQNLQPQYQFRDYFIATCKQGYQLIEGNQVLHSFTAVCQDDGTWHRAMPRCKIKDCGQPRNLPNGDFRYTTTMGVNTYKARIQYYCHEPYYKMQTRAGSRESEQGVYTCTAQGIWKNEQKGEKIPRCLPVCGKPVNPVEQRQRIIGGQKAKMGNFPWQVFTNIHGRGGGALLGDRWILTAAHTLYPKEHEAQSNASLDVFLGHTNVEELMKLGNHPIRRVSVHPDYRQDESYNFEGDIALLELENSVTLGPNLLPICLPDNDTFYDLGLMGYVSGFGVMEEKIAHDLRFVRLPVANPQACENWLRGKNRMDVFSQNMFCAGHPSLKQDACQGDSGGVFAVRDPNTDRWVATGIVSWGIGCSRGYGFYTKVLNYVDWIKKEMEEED

plasmin = plasmin (Homo sapiens, UniProt P00747); assay: anti-plasmin activity, hydrolysis of TAME (tosylarginine methyl ester); type: biochemical; conditions: hydrolysis of TAME; read-out: Pla: molar concentration inhibiting 50% of enzyme activity (IC50)
Description: as §1

kallikrein = assay: anti-kallikrein activity, hydrolysis of TAME (tosylarginine methyl ester); type: biochemical; conditions: hydrolysis of TAME; read-out: Kal: molar concentration inhibiting 50% of enzyme activity (IC50)
Description: as §1

C1s = target: T2, C1s (Homo sapiens, UniProt P09871); assay: anti-complement (anti-C1 esterase) activity, C1s hydrolysis of ATEE (acetyltyrosine ethyl ester); type: biochemical; conditions: hydrolysis of ATEE; read-out: Cls: molar concentration inhibiting 50% of C1s activity (IC50)
T2 sequence (P09871 16-688): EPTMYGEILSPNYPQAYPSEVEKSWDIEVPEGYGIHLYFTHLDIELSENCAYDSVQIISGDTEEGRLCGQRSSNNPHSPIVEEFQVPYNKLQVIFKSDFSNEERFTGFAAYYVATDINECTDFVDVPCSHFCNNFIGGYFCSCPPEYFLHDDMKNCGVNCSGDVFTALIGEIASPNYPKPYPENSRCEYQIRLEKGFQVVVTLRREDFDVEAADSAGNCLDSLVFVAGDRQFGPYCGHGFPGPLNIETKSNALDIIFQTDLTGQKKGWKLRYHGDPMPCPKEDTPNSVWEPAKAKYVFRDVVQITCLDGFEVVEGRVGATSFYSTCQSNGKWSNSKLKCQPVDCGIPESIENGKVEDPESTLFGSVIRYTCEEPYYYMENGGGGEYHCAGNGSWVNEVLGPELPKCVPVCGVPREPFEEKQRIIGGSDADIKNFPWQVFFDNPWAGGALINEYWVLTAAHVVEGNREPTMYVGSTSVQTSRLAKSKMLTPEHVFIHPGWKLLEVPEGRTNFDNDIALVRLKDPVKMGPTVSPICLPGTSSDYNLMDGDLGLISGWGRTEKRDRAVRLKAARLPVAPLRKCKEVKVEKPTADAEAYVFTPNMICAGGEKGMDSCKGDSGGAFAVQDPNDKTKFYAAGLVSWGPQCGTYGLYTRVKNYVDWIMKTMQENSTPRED
Description: The anti-C1 esterase (C1r, C1s) activity was determined according to the method of Okamura et al. (Biochem. Biophys. Acta (1973), volume 295, pages 252-257). […] The values for C1s represent molar concentrations (IC50) of test compounds which inhibit 50% of the activity of C1s to hydrolyze ATEE (acetyltyrosine ethyl ester).

trypsin = target: T3, trypsin (Bos taurus, UniProt P00760); assay: anti-trypsin activity, hydrolysis of TAME (tosylarginine methyl ester); type: biochemical; conditions: hydrolysis of TAME; read-out: Try: molar concentration inhibiting 50% of enzyme activity (IC50)
T3 sequence (P00760 24-246): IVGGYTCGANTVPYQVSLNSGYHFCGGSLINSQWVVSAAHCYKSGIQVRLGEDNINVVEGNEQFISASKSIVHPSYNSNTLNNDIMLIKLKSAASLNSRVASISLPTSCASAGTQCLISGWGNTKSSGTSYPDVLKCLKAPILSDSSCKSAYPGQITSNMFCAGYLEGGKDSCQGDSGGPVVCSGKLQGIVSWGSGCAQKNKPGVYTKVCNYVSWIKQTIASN

adjuvant arthritis = assay: Effectiveness in treating adjuvant arthritis (Mycobacterium butyricum); type: in vivo, rat; conditions: 30 mg/kg, oral, day -1 to day 13
Description: Adjuvant arthritis is known as a representative model of autoimmune diseases and is a effective means of testing agents to treat human rheumatoid arthritis (Encyclopedia of Immunology, edited by I. M. Roitt, Academic Press, 1992; Otterness, I. G., et al., J. of Rheumatology (1991), volume 18, pages 505-511),
The method of experiment was as follows. A 0.6% Mycobacterium butyricum liquid paraffin suspension, 0.1 ml/animal, was administered to a rat at a subcutaneous site of left hind-limb sole to induce adjuvant arthritis. The present compound was orally administered (in the form of a suspension in water) consecutively from 1 day before the induction to 13 days after the induction. The efficacy of the present compound on adjuvant arthritis was evaluated by examining the swelling accompanied by red spots and subcutaneous knots at the fore-limb, hind-limb, tail, ear and periphery of eye with the lapse of days (on the 8th, 10th, 12th, 14th, 16th and 18th days after adjuvant administration), expressing the results in terms of scores according to the method of F. D. Wood et al. (Int. Arch. Allergy (1969), volume 35, pages 456-467), and calculating the percentage inhibition relative to the control group. Thus, the higher value of percentage inhibition indicates the higher effectiveness.

[1] = 30 mg/kg, oral, mean ± standard deviation, 7 animals, control group 40.8 ± 15.1
[2] = hydrolysis of AAME, read-out: Clr: molar concentration inhibiting 50% of C1r activity (IC50)
[3] = 100 mg/kg, oral, mean ± standard deviation, 7 animals, control group 40.8 ± 15.1

Sequence of plasmin (P00747 581-810 limits assumed, species assumed): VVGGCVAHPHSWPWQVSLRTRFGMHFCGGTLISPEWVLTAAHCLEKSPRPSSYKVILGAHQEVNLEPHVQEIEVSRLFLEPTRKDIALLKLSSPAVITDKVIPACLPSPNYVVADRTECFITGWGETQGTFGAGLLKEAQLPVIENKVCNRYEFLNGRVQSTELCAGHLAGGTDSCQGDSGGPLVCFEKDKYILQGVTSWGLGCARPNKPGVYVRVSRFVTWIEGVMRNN
Sequence of plasmin (P00747 97-580 partner limits assumed, species assumed): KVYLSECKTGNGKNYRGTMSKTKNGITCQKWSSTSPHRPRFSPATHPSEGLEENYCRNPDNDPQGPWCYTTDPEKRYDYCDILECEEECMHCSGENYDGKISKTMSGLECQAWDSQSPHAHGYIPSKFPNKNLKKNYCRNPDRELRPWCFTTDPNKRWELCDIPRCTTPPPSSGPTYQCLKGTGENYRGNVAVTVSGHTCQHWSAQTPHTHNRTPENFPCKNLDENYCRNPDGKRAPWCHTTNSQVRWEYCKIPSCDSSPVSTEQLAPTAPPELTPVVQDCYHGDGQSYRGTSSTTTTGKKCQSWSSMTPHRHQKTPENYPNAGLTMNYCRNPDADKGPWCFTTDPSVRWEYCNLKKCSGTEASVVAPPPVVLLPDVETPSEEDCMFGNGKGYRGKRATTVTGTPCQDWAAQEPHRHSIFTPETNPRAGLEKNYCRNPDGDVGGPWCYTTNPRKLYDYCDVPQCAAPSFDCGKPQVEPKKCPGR

SMILES	Protein concentration in urine (Masugi's nephritis; [1]) [mg/mL]	pIC50 (thrombin)	pIC50 (C1r; [2])	pIC50 (plasmin)	pIC50 (kallikrein)	pIC50 (C1s)	pIC50 (trypsin)	also measured
Cl.N=C(N)c1ccc2cc(OC(=O)c3ccc(CNC(=O)Cc4ccc(C(=O)O)cc4)o3)ccc2c1 [Example 6, 6-Amidino-2-naphthyl 5-(4-carboxyphenylacetylaminomethyl)furan-2-carboxylate hydrochloride]	19.7 ± 11.1	5.00	7.64	6.59	6.08	6.57	6.41	–
Cl.N=C(N)c1ccc2cc(OC(=O)c3ccc(CNC(=O)[C@H]4CC[C@H](C(=O)O)CC4)o3)ccc2c1 [Example 11, 6-Amidino-2-naphthyl 5-(trans-4-carboxy-1-cyclohexanoylaminomethyl)furan-2-carboxylate hydrochloride]	–	5.92	–	6.40	6.06	6.55	6.18	Protein concentration in urine (Masugi's nephritis; po, 30 mg/kg): 33.6 ± 17.8 mg/mL; pIC50 (C1r): 5.92
Cl.N=C(N)c1ccc2cc(OC(=O)c3ccc(CNC(=O)/C=C/C(=O)O)o3)ccc2c1 [Example 13, 6-Amidino-2-naphthyl 5-(trans-2-carboxyvinyl)carbonylaminomethylfuran-2-carboxylate hydrochloride]	24.2 ± 16.8	–	–	–	–	–	–	–
Cl.N=C(N)c1ccc2cc(OC(=O)c3ccc(CNC(=O)CCCCC(=O)O)o3)ccc2c1 [Example 23, 6-Amidino-2-naphthyl 5-(5-carboxyvalerylaminomethyl)furan-2-carboxylate hydrochloride]	24.2 ± 18.8	–	–	–	–	–	–	–
Cl.N=C(N)c1ccc2cc(OC(=O)c3ccc(CNC(=O)CCCCCCCC(=O)O)o3)ccc2c1 [Example 26, 6-Amidino-2-naphthyl 5-(8-carboxyoctanoylaminomethyl)furan-2-carboxylate hydrochloride]	25.0 ± 15.4	–	–	–	–	–	–	–
N=C(N)NC(CCC(=O)O)C(=O)NCc1ccc(C(=O)Oc2ccc3cc(C(=N)N)ccc3c2)o1 (centres unmarked) [Example 29, 6-Amidino-2-naphthyl 5-(4-carboxy-2-guanidinobutyrylaminomethyl)furan-2-carboxylate dihydrobromide]	–	5.80	6.36	6.64	6.62	6.44	5.92	–
CN(C)C(=O)COC(=O)CCC(=O)NCc1ccc(C(=O)Oc2ccc3cc(C(=N)N)ccc3c2)o1 [Example 31, 6-Amidino-2-naphthyl 5-(3-N,N-dimethylcarbamoylmethoxycarbonylpropionylaminomethyl)furan-2-carboxylate hydrochloride]	–	6.82	6.54	6.80	6.77	6.35	6.22	Percentage inhibition (arthritis score) (adjuvant arthritis): 67.7%
N=C(N)c1ccc2cc(OC(=O)c3ccc(CNC(=O)CCC(N)=O)o3)ccc2c1 [Example 32, 6-Amidino-2-naphthyl 5-(3-carbamoylpropionylaminomethyl)furan-2-carboxylatehydrochloride]	22.8 ± 13.9	–	–	–	–	–	–	–
Cc1oc(=O)oc1COC(=O)CCC(=O)NCc1ccc(C(=O)Oc2ccc3cc(C(=N)N)ccc3c2)o1 [Example 33, 6-Amidino-2-naphthyl 5-{[3-(4-methyl-1,3-dioxole-2-one-5-yl)methoxycarbonyl]propionylaminomethyl}furan-2-carboxylate hydrochloride]	–	7.64	6.85	7.08	6.24	6.66	5.18	–
COC(=O)CCC(=O)NCc1ccc(C(=O)Oc2ccc3cc(C(=N)N)ccc3c2)o1.Cl [Example 34, 6-Amidino-2-naphthyl 5-(3-methoxycarbonylpropionylaminomethyl)furan-2-carboxylate hydrochloride]	29.3 ± 18.8	7.05	6.48	6.89	6.89	6.77	6.57	–
Cl.N=C(N)c1ccc2cc(OC(=O)c3ccc(CNC(=O)CCC(=O)NCC(=O)O)o3)ccc2c1 [Example 36, 6-Amidino-2-naphthyl 5-(3-carboxymethylcarbamoylpropionylaminomethyl)furan-2-carboxylate hydrochloride]	26.2 ± 14.7	–	–	–	–	–	–	–
CCC(C(=O)O)C(=O)NCc1ccc(C(=O)Oc2ccc3cc(C(=N)N)ccc3c2)o1.Cl (centres unmarked) [Example 38, 6-Amidino-2-naphthyl 5-(2-carboxybutyrylaminomethyl)furan-2-carboxylate hydrochloride]	17.8 ± 12.4	–	–	–	–	–	–	–
CC(CC(=O)O)CC(=O)NCc1ccc(C(=O)Oc2ccc3cc(C(=N)N)ccc3c2)o1.Cl (centres unmarked) [Example 43, 6-Amidino-2-naphthyl 5-(4-carboxy-3-methylbutyrylaminomethyl)furan-2-carboxylate hydrochloride]	21.8 ± 10.3	–	–	–	–	–	–	–
N=C(N)c1ccc2cc(OC(=O)c3ccc(CNC(=O)CC4(CC(=O)O)CCCC4)o3)ccc2c1 [Example 44, hydrochloride]	20.0 ± 12.9	–	–	–	–	–	–	–
N=C(N)c1ccc2cc(OC(=O)c3ccc(CNC(=O)c4ccc(NC5=NCCN5)cc4)o3)ccc2c1 [Known compd. I, reference compound]	–	–	–	–	–	–	–	Protein concentration in urine (Masugi's nephritis; [3]): 24.4 ± 11.9 mg/mL
N=C(N)c1ccc2cc(OC(=O)c3ccc(CN)o3)ccc2c1 [Known compd. II, reference compound]	–	–	–	–	–	–	–	Protein concentration in urine (Masugi's nephritis; [3]): 22.1 ± 11.4 mg/mL
